Literature values as cited in US10783985B2, “Physics-based computational methods for predicting compound solubility” (Schrödinger, LLC, priority 2015, dated 2020).

Settings: for Expt. Solubility: Table 1, experimentally determined
[1] = experimental, Ilevbare and Taylor 2013

Structure (SMILES): COc1ccc2c(c1)c(CC(=O)O)c(C)n2C(=O)c1ccc(Cl)cc1 [indomethacin]
- Expt. Solubility: 8.38 µM

Structure (SMILES): CCOC(=O)C1=C(C)NC(C)=C(C(=O)OC)C1c1cccc(Cl)c1Cl (stereo not shown) [felodipine]
- "amorphous" solubility [1]: 22.1 µM
- "equilibrium" solubility [1]: 2.5 µM
- solubility class (BCS), experimental data (felodipine comparison data): low solubility (BCS Class II/IV)

Structure (SMILES): CC(=O)Nc1ccc(O)cc1 [acetaminophen]
- aqueous solubility (experimental, NIH Pubchem database, printed conversion of the mg/L value): ~36,000 μM

Structure (SMILES): CN1CCN(C2=Nc3cc(Cl)ccc3Nc3ccccc32)CC1 [clozapine]
- Expt. Solubility: 26.93 µM

Structure (SMILES): Clc1ccccc1C(c1ccccc1)(c1ccccc1)n1ccnc1 [clotrimazole]
- Expt. Solubility: 1.16 µM
